Source: patent US20250052744A1, “Dyes and Uses Thereof” (The University of Liverpool, priority 2021, published 2025)

Key:
Assay type in all cases: cell-based
E. Coli SEC 31 = assay: Fluorescent signal intensity of stained bacteria (microscope, ImageJ)
Protocol: (§1) Firstly, all different bacterial strains were grown overnight in LB at 37° C. and 200 rpm. The mid-exponential phase cultures of bacterial strains were then diluted to a concentration of 10^5 cells·mL^−1 in LB. SYBR Green I, SYTO 13/9 and DiSC3(5) dyes were prepared by diluting them from their stocks.
(§2) The three dyes (SYBR Green I, SYTO 13/9 and DiSC3(5)) were then added in the final concentrations of 3 μM—DiSC3(5), 3 μM—SYTO 13/9 and 10× (diluted from the stock 10,000×)—SYBR Green I to the different bacterial strains and the strains incubated […] at 37° C. for 10 minutes in the dark.
(§3) The bacterial strains were then put on a haemocytometer and visualised under a microscope with fluorescent filters corresponding to individual dyes. Images were taken for all the bacterial strains at the same intensity of the incident laser light and 10-15 images were taken for each of the bacterial strains.
(§4) The images were then analysed on ImageJ software by first converting the coloured images to monochromatic images, then selecting an area with cells and analysing the plot profile. The intensity of the peaks and background from the image was then recorded.
(§5) A similar protocol to Example 1 was followed, with the addition of […] of FM 4-64.

[1] = tested on: Enterococcus faecium NCTCT 7171; assay: as above
Protocol: as §1, §2, §3, §4, §5

[2] = tested on: Klebsiella pneumoniae NCTC 9633; assay: as above
Protocol: as §1, §2, §3, §4, §5

P. Aeruginosa NCTC 10332 = assay: as above
Protocol: as §1, §2, §3, §4, §5

P. Mirabilis NCTC 11938 = assay: as above
Protocol: as §1, §2, §3, §4, §5

S. Aureus NCTC 8532 = assay: as above
Protocol: as §1, §2, §3, §4, §5

Proteus = assay: Qualitative dye staining on agarose pads (EVOS M7000); parameters: key to Relative fluorescent intensity: Very high: If the cells looked twice as big in the fluorescent channel, it was marked as having “very high” relative fluorescent intensity; High: if the cells looked bigger in the fluorescent channel, it was marked as having “high” relative fluorescent intensity; Medium: If the cells looked almost the same size in the fluorescent channel and the bright field, it was marked as having “medium” relative fluorescent intensity; Low: If the cells looked smaller in the fluorescent channel as compared to the brightfield but still the whole cell was visible, it was marked as having “low” relative fluorescent intensity; Negligible: If only a few traces of a cell was visible in the fluorescent channel, it was marked as having “negligible” relative fluorescent intensity; conditions: Table 6 thresholds, DiSC3(5) 3 μM, SYBR Green I 10×, SYTO 13 3 μM, FM4-64 15 μM
Protocol: An overnight culture was prepared by inoculating a bacterial colony in approximately 5 ml of Urine and incubating the culture in an orbital shaker at 37° C.
The following media and materials were utilised: Cation-adjusted Mueller Hinton broth (MHB); Phosphate Buffered Saline (PBS); Membrane staining dye—FM4-64 (1.5 mM); Live cell staining dye—DiSC3(5) (1 mM); DNA staining dye—SYBR Green (1000×); DNA staining dye—SYTO 13 (0.5 mM); Ultrapure Agarose; Parafilm; Glass slides and coverslips; Scalpel; and EVOS M7000 fluorescent microscope.
A pre-cut parafilm or a coverslip was used as a guide and 22 mm×22 mm squares cut from parafilm. A square was cut out of the centre of the parafilm (approximately 10 mm×10 mm). The centre of the cut-out was discarded. Two parafilm gaskets were placed onto a cleaned glass slide. The glass slide was then placed on a dry bath set to 56° C. so that the parafilm adhered to the glass slide. The glass slide was then kept on the dry bath. Using a microwave, ultrapure agarose was dissolved in PBS at a concentration of 1.2%. The agarose solution was kept on a dry bath set at 56° C. 60 μl of the agarose solution was pipetted in the centre of the parafilm gaskets. A coverslip was then placed over the gaskets without applying pressure on the coverslip. The slide was then placed on a cool surface and left to solidify for 1-2 minutes. The coverslips were then gently lifted off the agarose pads.
In a first Eppendorf, 15 μl of FM4-64 and 6 μl of SYTO 13 was added and in a second Eppendorf 10 μl of SYBR Green and 3 μl of DiSC3(5) was added. Depending on the bacterial growth in urine, an appropriate concentration of the bacterial culture was placed in the two Eppendorfs (final bacterial concentration 10^6 CFU/ml). MHB was added so as to achieve a final volume of 1 ml. Final concentrations of the dyes in the sample was as follows: DiSC3(5): 3 μM; SYBR Green I: 10× (originally supplied as 10,000×); SYTO 13: 3 μM; and FM4-64: 15 μM
4 μl of the contents of each Eppendorf were deposited on one agarose pad and the cells distributed across the agar surface by tilting the slide. The slide was left to dry for approximately 1 minute. A coverslip was then placed on top of the agarose pad. The slide was placed inside the microscope and incubated at 37° C. for 10 minutes. Using different light filters for each dye, an image of each pad at 40× magnification on an EVOS M7000 fluorescent microscope was captured. Eight images for each agarose pad was recorded (i.e. 8 each for brightfield and 2 fluorescent channels). For each agarose pad, 24 images were recorded. This corresponded to 48 images in total for each bacterial strain (2 agarose pads per strain). Table A below was used to take the images using the correct fluorescent channel and intensity (for imagining on any other instrument, the LED intensity will need to be normalised against the EVOS M7000).
To qualitatively calculate the relative fluorescent intensities, cell size was compared between brightfield and the fluorescent channel for a given fluorescent dye. If the cells are very fluorescent, they will appear bigger in the fluorescent channel as compared to the bright field. For our qualitative measurements, if the cells looked bigger in the fluorescent channel, it was marked as having “high” relative fluorescent intensity. If the cells looked twice as big in the fluorescent channel, it was marked as having “very high” relative fluorescent intensity. If the cells looked almost the same size in the fluorescent channel and the bright field, it was marked as having “medium” relative fluorescent intensity. If the cells looked smaller in the fluorescent channel as compared to the brightfield but still the whole cell was visible, it was marked as having “low” relative fluorescent intensity. If only a few traces of a cell was visible in the fluorescent channel, it was marked as having “negligible” relative fluorescent intensity.

[3] = Table 1, 3 μM DiSC3(5), 3 μM SYTO 13/9, 10× SYBR Green I, 37° C. for 10 minutes, background subtracted
[4] = Table 3, DiSC3(5) 3 uM, SYBR Green 10x, SYTO 13/9 3 uM, FM 4-64 15 uM

SMILES | fluorescent signal intensity value, Average (E. Coli SEC 31; [3]) | fluorescent signal intensity value, Average (E. Coli SEC 31; [4]) | fluorescent signal intensity value, Average [1, 3] | fluorescent signal intensity value, Average [1, 4] | fluorescent signal intensity value, Average [2, 3] | fluorescent signal intensity value, Average [2, 4] | fluorescent signal intensity value, Average (P. Aeruginosa NCTC 10332; [3]) | fluorescent signal intensity value, Average (P. Aeruginosa NCTC 10332; [4]) | fluorescent signal intensity value, Average (P. Mirabilis NCTC 11938; [3]) | fluorescent signal intensity value, Average (P. Mirabilis NCTC 11938; [4]) | fluorescent signal intensity value, Average (S. Aureus NCTC 8532; [3]) | fluorescent signal intensity value, Average (S. Aureus NCTC 8532; [4]) | Percentage of cells stained (Proteus) | Relative fluorescent intensity (Proteus) | Relative fluorescent intensity (Proteus; listed as FM4-64)
CCCN1C(=CC=CC=Cc2sc3ccccc3[n+]2CCC)Sc2ccccc21.[I-] [DiSC3(5), 3,3′-Dipropylthiadicarbocyanine Iodide] | 62.66 | 62.66 | 142.28 | 142.28 | 16.70 | 16.70 | 0.00 | 0.00 | 88.50 | 88.50 | 184.80 | 184.80 | Half | Low-Medium | 
CCN(CC)c1ccc(C=CC=CC=Cc2cc[n+](CCC[N+](CC)(CC)CC)cc2)cc1.[Br-].[Br-] [FM 4-64, N-(3-Triethylammoniumpropyl)-4-(6-(4-(Diethylamino) Phenyl) Hexatrienyl) Pyridinium Dibromide] |  | 56.50 |  | 25.00 |  | 30.00 |  | 10.00 |  | 0.00 |  | 89.00 | Few | no staining or negligible | Negligible
CCCN(CCCN(C)C)c1cc(/C=C2/Sc3ccccc3N2C)c2ccccc2[n+]1-c1ccccc1 [SYBR Green I, N′,N′-dimethyl-N-[4-[(E)-(3-methyl-1,3-benzothiazol-2-ylidene)methyl]-1-phenylquinolin-1-ium-2-yl]-N-propylpropane-1,3-diamine] | 104.53 | 104.53 | 162.27 | 162.27 | 21.87 | 21.87 | 123.67 | 123.67 | 109.85 | 109.85 | 196.52 | 196.52 | Half | Low | 
